For one test, the target named is T1, GRP78:S1 interaction (Homo sapiens, UniProt P11021).
T1 construct: The full length human GRP78 protein recombinantly produced in Escherichia coli; purchased Abcam (GRP78); Peak Proteins Ltd (S1); host or cells: Escherichia coli (GRP78); HEK293 (S1)
The test can be described thus: biochemical. The format is binding, human GRP78 / SARS-CoV-2 S1.

The target in another test is T2, human GRP78 (Homo sapiens, UniProt P11021).
T2 construct: The full length human GRP78 protein recombinantly produced in Escherichia coli; 6xHis (inferred from capture on nickel-NTA chip); purchased Abcam (Cambridge, UK); host or cells: Escherichia coli
T2 sequence (P11021 19-654): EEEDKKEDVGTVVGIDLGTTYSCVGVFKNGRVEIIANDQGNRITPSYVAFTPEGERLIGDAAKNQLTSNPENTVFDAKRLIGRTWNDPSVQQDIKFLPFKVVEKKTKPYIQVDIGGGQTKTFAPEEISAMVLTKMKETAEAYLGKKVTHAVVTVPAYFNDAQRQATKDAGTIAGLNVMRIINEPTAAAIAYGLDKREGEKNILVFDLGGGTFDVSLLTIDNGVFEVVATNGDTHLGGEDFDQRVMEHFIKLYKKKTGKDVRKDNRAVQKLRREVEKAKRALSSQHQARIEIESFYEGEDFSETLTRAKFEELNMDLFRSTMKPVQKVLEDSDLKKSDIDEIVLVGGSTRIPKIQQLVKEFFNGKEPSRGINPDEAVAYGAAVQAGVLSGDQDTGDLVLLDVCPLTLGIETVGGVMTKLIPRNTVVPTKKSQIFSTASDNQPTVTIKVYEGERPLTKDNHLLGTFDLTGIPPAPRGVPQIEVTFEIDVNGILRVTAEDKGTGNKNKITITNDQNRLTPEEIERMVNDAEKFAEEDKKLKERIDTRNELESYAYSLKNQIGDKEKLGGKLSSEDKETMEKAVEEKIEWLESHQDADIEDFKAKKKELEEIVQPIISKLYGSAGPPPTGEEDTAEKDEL
The test can be described thus: biochemical. It is filed as binding. The following applies: for kon: read-out: Ka1 (association rate constant 1).

Setting [1] is: read-out: Kd1 (dissociation rate constant 1).
Setting [2] is: read-out: Kd2 (dissociation rate constant 2).

Molecules are shown by their SMILES. Read-outs that look alike come from different tables or passages of the source. Bridge positions count the residues as written; N and C are the ends. Peptide text beside a SMILES is read from it. A value given as a limit tells only on which side of the number the result lay.

T1 sequence (P11021 19-654): as above

Regarding `CC(C)[C@@H]1NC(=O)CNC(=O)[C@H](CC(N)=O)NC(=O)[C@@H](N)CSSC[C@@H](C(N)=O)NC(=O)[C@H](CC(N)=O)NC(=O)[C@H](Cc2ccccc2)NC(=O)CNC(=O)[C@H](CCC(=O)O)NC1=O` [LCP W] (H-CNGVEGFNC-NH2; disulfide 1-9), the IC50 (usually the point on the concentration scale where inhibition reaches its midpoint) against GRP78:S1 interaction is < 3 µM. In addition, the Kd (usually the free concentration of one partner at which half of the binding sites on the other are occupied at equilibrium, for simple one-to-one binding) on human GRP78 (affinity of binding to GRP78) was 200 µM. On human GRP78, the kon was 1670 M⁻¹ s⁻¹. The values for the koff on human GRP78 (setting [1]) and at human GRP78 (setting [2]) were 0.43 s⁻¹ and 0.03 s⁻¹, respectively.

`CC(C)[C@@H]1NC(=O)CNC(=O)[C@H](CC(N)=O)NC(=O)[C@@H](N)CSSC[C@@H](C(N)=O)NC(=O)[C@H](CC(N)=O)NC(=O)[C@H](Cc2ccccc2)NC(=O)CNC(=O)[C@H](C)NC1=O` [LCP O] (H-CNGVAGFNC-NH2; disulfide 1-9): at GRP78:S1 interaction, the IC50 was < 3 µM. Moreover, the results for the Kd on human GRP78 (KD (equilibrium dissociation constant)) and on human GRP78 (affinity of binding to GRP78) were 2120 µM and 2000 µM, respectively. At human GRP78, the kon was 140 M⁻¹ s⁻¹. Moreover, the koff stood at 0.643 s⁻¹ on human GRP78 (setting [1]) and 0.00182 s⁻¹ on human GRP78 (setting [2]).

Source of the values: publication PMC11497264 (Chembiochem, 2024).
